Assay results: patent publication US20230357162A1, “COMPOUNDS, COMPOSITIONS AND METHODS” (Denali Therapeutics Inc., priority 2020, published 2023)
Where a name gives a salt, the structure may show the parent alone.

Test system: IL-1β secretion, THP-1 cells
Test: IL-1β secretion assay in PMA-differentiated THP-1 cells stimulated with LPS and nigericin (ELISA readout)
Assay type: cell-based
Conditions: Homo sapiens, THP-1, inhibition of IL-1β secretion, 25 ng/mL LPS then nigericin
How it was run: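 THP-1 cells differentiated with 5 ng/mL PMA for 40 h, primed in serum-free medium with 25 ng/mL LPS for 2 h, then compound (0.5% DMSO) for 1 h before nigericin for 2 h at 37°C. Supernatant IL-1β quantified by ELISA; normalized to high (LPS + 5 µM nigericin) and low (LPS only) controls.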

Row | SMILES | IC50 (class column of Table 3) [µM] | IC50 (numeric column of Table 3) [µM]
1 | CCN1CCC[C@@H](NC(=O)Cn2nc(C(C)C)c3cc(Cl)ccc3c2=O)C1 [Example 79, 2-(6-chloro-1-oxo-4-propan-2-ylphthalazin-2-yl)-N-[(3R)-1-ethylpiperidin-3-yl]acetamide] | < 10 | 0.61
2 | CC(F)c1nn(CC(=O)Nc2ncccn2)c(=O)c2cc(Br)ccc12 (stereo not drawn) [Example 81, 2-[7-bromo-4-(1-fluoroethyl)-1-oxo-phthalazin-2-yl]-N-pyrimidin-2-yl-acetamide] | > 15 | 32
3 | O=C(Cn1nc(OC(F)(F)F)c2cc(Br)ccc2c1=O)Nc1ncncc1F [Example 82] | < 10 | 1.48
4 | O=C(Cn1nc(OC(F)(F)F)c2ccc(Br)cc2c1=O)Nc1ncncc1F [Example 83, 2-[7-Bromo-1-Oxo-4-(Trifluoromethoxy)Phthalazin-2-yl]-N-(5-Fluoropyrimidin-4-yl)Acetamide] | > 15 | > 50
5 | CC(C)c1nn(CC(=O)NCC2CCCCO2)c(=O)c2ccc(Br)cc12 (stereo not drawn) [Example 84, 2-(6-bromo-1-oxo-4-propan-2-ylphthalazin-2-yl)-N-(oxan-2-ylmethyl)acetamide] | < 10 | 3.71
6 | CC(C)c1nn(CC(=O)Nc2ncncc2F)c(=O)c2cc(F)c(Br)cc12 [Example 85, 2-(6-bromo-7-fluoro-1-oxo-4-propan-2-ylphthalazin-2-yl)-N-(5-fluoropyrimidin-4-yl)acetamide] | < 10 | 0.382
7 | CC(C)c1nn(CC(=O)Nc2ncncc2F)c(=O)c2cc(Br)c(F)cc12 [Example 86, 2-(7-bromo-6-fluoro-1-oxo-4-propan-2-ylphthalazin-2-yl)-N-(5-fluoropyrimidin-4-yl)acetamide] | > 15 | > 50
8 | CC(C)c1nn(CC(=O)Nc2ncncc2F)c(=O)c2cc(C(F)(F)F)ccc12 [Example 88, N-(5-fluoropyrimidin-4-yl)-2-[1-oxo-4-propan-2-yl-7-(trifluoromethyl)phthalazin-2-yl]acetamide] | > 15 | > 50
9 | CCN1CCC[C@@H](NC(=O)Cn2nc(C(F)(F)F)c3cc(Br)ccc3c2=O)C1 [Example 89, 2-[6-bromo-1-oxo-4-(trifluoromethyl)phthalazin-2-yl]-N-[(3R)-1-ethylpiperidin-3-yl]acetamide] | < 10 | 0.764
10 | O=C(Cn1nc(CC(F)(F)F)c2cc(Br)ccc2c1=O)Nc1ncncc1F [Example 91, 2-[6-bromo-1-oxo-4-(2,2,2-trifluoroethyl)phthalazin-2-yl]-N-(5-fluoropyrimidin-4-yl)acetamide] | < 10 | 0.489
11 | CC(C)c1nn(CC(=O)Nc2ncncc2F)c(=O)c2c(F)cc(Br)cc12 [Example 92, 2-(6-bromo-8-fluoro-1-oxo-4-propan-2-ylphthalazin-2-yl)-N-(5-fluoropyrimidin-4-yl)acetamide] | < 10 | 0.741
12 | O=C(Cn1nc(C(F)F)c2cc(Br)ccc2c1=O)Nc1ncc(F)cn1 [Example 103, 2-[6-bromo-4-(difluoromethyl)-1-oxophthalazin-2-yl]-N-(5-fluoropyrimidin-2-yl)acetamide] | < 10 | 0.265
13 | O=C(Cn1nc(C(F)F)c2ccc(Br)cc2c1=O)Nc1ncc(F)cn1 [Example 104, 2-[7-bromo-4-(difluoromethyl)-1-oxophthalazin-2-yl]-N-(5-fluoropyrimidin-2-yl)acetamide] | < 10 | 6.99
14 | O=C(Cn1nc(C(F)F)c2nc(C(F)(F)F)ccc2c1=O)Nc1ncc(F)cn1 [Example 105, 2-[8-(difluoromethyl)-5-oxo-2-(trifluoromethyl)pyrido[2,3-d]pyridazin-6-yl]-N-(5-fluoropyrimidin-2-yl)acetamide] | < 10 | 0.614
15 | CC(C)c1nn(CC(=O)NCC2CCCN2)c(=O)c2ccc(Br)cc12 (stereo not drawn) [Example 108, 2-(6-bromo-1-oxo-4-propan-2-ylphthalazin-2-yl)-N-(pyrrolidin-2-ylmethyl)acetamide HCl salt] | < 10 | 8.23
16 | CC(C)c1nn(CC(=O)Nc2ccc(C3CC3)cn2)c(=O)c2ccc(Br)cc12 [Example 111, 2-(6-bromo-1-oxo-4-propan-2-ylphthalazin-2-yl)-N-(5-cyclopropylpyridin-2-yl)acetamide] | < 10 | 0.796
17 | CC(C)c1nn(CC(=O)Nc2cnc(Cl)c(F)c2)c(=O)c2ccc(Br)cc12 [Example 112, 2-(6-bromo-1-oxo-4-propan-2-ylphthalazin-2-yl)-N-(6-chloro-5-fluoropyridin-3-yl)acetamide] | < 10 | 1.12
18 | CC(C)c1nn(CC(=O)Nc2ncc(F)cn2)c(=O)c2ccc(Br)cc12 [Example 113, 2-(6-bromo-1-oxo-4-propan-2-ylphthalazin-2-yl)-N-(5-fluoropyrimidin-2-yl)acetamide] | < 10 | 0.035
19 | CC(C)c1nn(CC(=O)Nc2ncc(F)cc2C#N)c(=O)c2ccc(Br)cc12 [Example 114, 2-(6-bromo-1-oxo-4-propan-2-ylphthalazin-2-yl)-N-(3-cyano-5-fluoropyridin-2-yl)acetamide] | < 10 | 1.77
20 | CC(C)c1nn(CC(=O)Nc2ncc(F)cc2Cl)c(=O)c2ccc(Br)cc12 [Example 115, 2-(6-bromo-1-oxo-4-propan-2-ylphthalazin-2-yl)-N-(3-chloro-5-fluoropyridin-2-yl)acetamide] | < 10 | 1.53
21 | CC(C)c1nn(CC(=O)Nc2cc(C(F)(F)F)nn2C)c(=O)c2ccc(Br)cc12 [Example 116, 2-(6-bromo-1-oxo-4-propan-2-ylphthalazin-2-yl)-N-[2-methyl-5-(trifluoromethyl)pyrazol-3-yl]acetamide] | < 10 | 4.6
22 | CC(C)c1nn(CC(=O)Nc2cncc(F)c2)c(=O)c2ccc(Br)cc12 [Example 122, 2-(6-bromo-1-oxo-4-propan-2-ylphthalazin-2-yl)-N-(5-fluoropyridin-3-yl)acetamide] | < 10 | 1.28

Further lines, results first:

Row | IC50 (class column of Table 3) [µM] | IC50 (numeric column of Table 3) [µM] | SMILES
23 | < 10 | 1.51 | CO[C@H]1C[C@H](NC(=O)Cn2nc(C(C)C)c3cc(Br)ccc3c2=O)C1 [Example 78, 2-(6-bromo-1-oxo-4-propan-2-ylphthalazin-2-yl)-N-(3-trans-methoxycyclobutyl)acet amide]
24 | < 10 | 0.197 | CC(F)c1nn(CC(=O)Nc2ncccn2)c(=O)c2ccc(Br)cc12 (stereo not drawn) [Example 80, 2-[6-bromo-4-(1-fluoroethyl)-1-oxo-phthalazin-2-yl]-N-pyrimidin-2-yl-acetamide]
25 | < 10 | 6.74 | CCN1CCC[C@@H](NC(=O)Cn2nc(C(F)(F)F)c3ccc(Br)cc3c2=O)C1 [Example 90, 2-[7-bromo-1-oxo-4-(trifluoromethyl)phthalazin-2-yl]-N-[(3R)-1-ethylpiperidin-3-yl]acetamide]
26 | < 10 | 0.14 | O=C(Cn1nc(C(F)F)c2cc(Br)ccc2c1=O)Nc1ncccn1 [Example 93, 2-[6-bromo-4-(difluoromethyl)-1-oxo-phthalazin-2-yl]-N-pyrimidin-2-yl-acetamide]
27 | < 10 | 6.05 | O=C(Cn1nc(C(F)F)c2ccc(Br)cc2c1=O)Nc1ncccn1 [Example 94, 2-[7-bromo-4-(difluoromethyl)-1-oxo-phthalazin-2-yl]-N-pyrimidin-2-yl-acetamide]
28 | < 10 | 0.058 | CC(C)c1nn(CC(=O)N[C@@H]2CCCN(C3CCC3)C2)c(=O)c2ccc(Br)cc12 [Example 106, 2-(6-bromo-1-oxo-4-propan-2-ylphthalazin-2-yl)-N-[(3R)-1-cyclobutylpiperidin-3-yl]acetamide]
29 | > 15 | > 50 | CC(C)c1nn(CC(=O)NCC2CCCN2C(=O)OC(C)(C)C)c(=O)c2ccc(Br)cc12 (stereo not drawn) [Example 107, tert-butyl 2-[[[2-(6-bromo-4-isopropyl-1-oxo-phthalazin-2-yl)acetyl]amino]methyl]pyrrolidine-1-carboxylate]
30 | < 10 | 5.81 | CCN1CCCC1CNC(=O)Cn1nc(C(C)C)c2cc(Br)ccc2c1=O (stereo not drawn) [Example 109, 2-(6-bromo-1-oxo-4-propan-2-ylphthalazin-2-yl)-N-[(1-ethylpyrrolidin-2-yl)methyl]acetamide]
31 | < 10 | 1.35 | CC(C)c1nn(CC(=O)Nc2nccc(C(F)(F)F)n2)c(=O)c2ccc(Br)cc12 [Example 110, 2-(6-bromo-1-oxo-4-propan-2-ylphthalazin-2-yl)-N-[4-(trifluoromethyl)pyrimidin-2-yl]acetamide]
32 | < 10 | 6.45 | CC(C)c1nn(CC(=O)NC2CC(n3cccn3)C2)c(=O)c2ccc(Br)cc12 (stereo not drawn) [Example 117, 2-(6-bromo-1-oxo-4-propan-2-ylphthalazin-2-yl)-N-(3-pyrazol-1-ylcyclobutyl)acetamide]
33 | < 10 | 0.737 | CC(C)c1nn(CC(=O)NC23CC(F)(C2)C3)c(=O)c2ccc(Br)cc12 [Example 118, 2-(6-bromo-1-oxo-4-propan-2-ylphthalazin-2-yl)-N-(3-fluoro-1-bicyclo[1.1.1]pentanyl)a cetamide]
34 | < 10 | 0.163 | CC(C)c1nn(CC(=O)Nc2ccc(C#N)cn2)c(=O)c2ccc(Br)cc12 [Example 119, 2-(6-bromo-1-oxo-4-propan-2-ylphthalazin-2-yl)-N-(5-cyanopyridin-2-yl)acetamide]
35 | < 10 | 0.025 | CC(C)c1nn(CC(=O)Nc2ncc(Cl)cn2)c(=O)c2ccc(Br)cc12 [Example 120, 2-(6-bromo-1-oxo-4-propan-2-ylphthalazin-2-yl)-N-(5-chloropyrimidin-2-yl)acetamide]
36 | < 10 | 0.423 | CC(C)c1nn(CC(=O)Nc2ccnnc2)c(=O)c2ccc(Br)cc12 [Example 121, 2-(6-bromo-1-oxo-4-propan-2-ylphthalazin-2-yl)-N-pyridazin-4-ylacetamide]
